From paper PMC4873483 (Experimental Animals, 2015)
Like-named read-outs stand apart in the source and are kept apart here. Values belong to the molecule of their own block, whether it stands above or below them.

Tests used:
[1] = mice, within 48 h post dose; cited from earlier work
[2] = Pharmacokinetic study following repeated s.c. administration of 1-MT; type: in vivo, domestic pigs (Sus scrofa domestica)
[3] = type: in vivo, domestic pigs (Sus scrofa domestica)
[4] = Pharmacokinetic study following a single s.c. administration of 1-MT; type: in vivo, domestic pigs (Sus scrofa domestica); settings: for Cmax: means ± standard deviation
[5] = given by mouth over a time frame of up to 4 weeks; cited from earlier work
[6] = repeated oral administration at a saturating dose, rats and dogs; cited from earlier work
plasma proteins = settings: cited from earlier work
[7] = 12 h after the final of five daily s.c. injections, n=6
[8] = German Landrace, pig, plasma, sc, 1 g
[9] = one-compartment model fitted by numerical simulation to single-dose plasma data
[10] = single s.c. administration of 1 g 1-MT, n=3
[11] = endogenous TRP, 12 h after the final s.c. injection of 1-MT
[12] = endogenous TRP, all four animals

SMILES: Cn1cc(C[C@H](N)C(=O)O)c2ccccc21 [1-MT, 1-methyl-L-tryptophan]
excreted via feces [1]: 13% | excreted via urine [1]: 35% | steady state of plasma trough concentrations ([2]; 1 g 1-MT s.c. daily for five days): steady state conditions of trough values were reached after two subcutaneous administrations | 1-MT concentrations in peripheral tissues ([2]; 12 h after the final of five daily s.c. injections): 48–152 nmol/g wet tissue weight | 1-MT concentration in kidney and liver [2, 7]: greater than 100 nmol/g wet tissue weight | 1-MT concentration in the different brain areas [2, 7]: lower than 20 nmol/g wet tissue weight | concentration at 12 h [2, 8]: 38 µM | share of 1-MT accumulated in organs derived from contamination with blood ([2]; estimated from plasma 1-MT and organ blood volumes (32-408 µl/g)): less than 5% | daily feed uptake ([3]; five daily s.c. administrations of 1 g 1-MT, not different from MYR (P = 0.97)): 0.66 ± 0.02 kg | fever response ([3]; five-day period of 1-MT administration): no fever response | health status after a single s.c. injection ([3]; single s.c. 1 g 1-MT, visual inspection twice daily): No impairment of the health status could be observed | AUC(0-t) [4, 8]: 960 ± 346 µM·h | Tmax [4, 8]: 12 h | concentration at 24 h [4, 8]: 21.1 ± 5.3 µM | Cmax ([4]; German Landrace, pig, plasma, sc, 1 g, Cmax, maximum concentration in pigs plasma, single s.c. administration of 1 g 1-MT, n=3): 29.1 ± 8 µM | half-life ([4]; German Landrace, pig, plasma, sc, 1 g, T1/2, half-life, single s.c. administration of 1 g 1-MT, n=3): 10.9 ± 2 h | kabsorption [4, 9]: 0.08 min⁻¹ | kelimination [4, 9]: 0.001 min⁻¹ | krelease [4, 9]: 0.0018 min⁻¹ | Cmax ([4]; read-out: Cmax, maximum concentration in pigs plasma, single s.c. administration of 1 g 1-MT, n=3): 29.1 ± 7.97 µM | T1/2, half-life [4, 10]: 10.93 ± 2.03 h | k, first-order kinetic rate constant [4, 10]: 0.065 ± 0.011 h⁻¹ | maximum tolerated dose [5]: 1.6 g/day | tolerability [6]: well tolerated, with no toxic effects | bound to plasma proteins (plasma proteins): less than 15%

TRP concentration in kidney, liver, adrenal gland, spleen, and thyroid gland [2, 11]: greater than 40 nmol/g wet tissue weight | TRP concentration in the other tissues [2, 11]: lower than 30 nmol/g wet tissue | maximum TRP concentration in plasma over the 7-day period [4, 12]: 37.7 µM | minimum TRP concentration in plasma over the 7-day period [4, 12]: 13.1 µM | average TRP concentration in plasma over the entire 7-day period ([4]; endogenous TRP, all four animals, after single s.c. 1-MT or MYR): 22.8 ± 5.1 µM
SMILES: N[C@@H](Cc1c[nH]c2ccccc12)C(=O)O [TRP, tryptophan]
